According to patent US20250019374A1, “PROTEIN TYROSINE PHOSPHATASE INHIBITORS AND METHODS OF USE THEREOF” (Calico Life Sciences LLC, priority 2021, published 2025):
Like-named read-outs stand apart in the source and are kept apart here.

How the values were obtained:
[1] = biological target: His tagged PTPN2 (TC45) protein (Homo sapiens (Human), UniProt P17706); test: PTPN2 Mobility Shift Assay (MSA); type: biochemical; conditions: for Dihydrobenzofuran or Indoline x-fold>potency biochemical: x-fold versus corresponding chromane comparator, PTPN2 MSA
Chain of His tagged PTPN2 (TC45) protein (P17706 other isoform, or with tags, fused parts or gaps): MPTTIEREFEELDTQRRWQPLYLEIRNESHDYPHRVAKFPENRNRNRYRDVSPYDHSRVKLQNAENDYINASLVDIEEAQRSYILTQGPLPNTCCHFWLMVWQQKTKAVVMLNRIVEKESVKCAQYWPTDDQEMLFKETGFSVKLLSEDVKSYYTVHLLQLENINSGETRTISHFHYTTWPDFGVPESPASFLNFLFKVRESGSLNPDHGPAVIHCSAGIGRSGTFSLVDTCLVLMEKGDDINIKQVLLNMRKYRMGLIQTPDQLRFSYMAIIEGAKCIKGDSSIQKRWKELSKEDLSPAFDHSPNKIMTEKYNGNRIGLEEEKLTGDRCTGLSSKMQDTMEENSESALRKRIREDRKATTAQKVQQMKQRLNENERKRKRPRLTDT
Method: Example III-1: Mobility Shift Assay (MSA) Used to Determine Potency of PTPN2 Inhibitors
Compound activity was determined using in house His tagged PTPN2 (TC45) protein (SEQ ID NO: 1) in an in vitro enzymatic reaction. The enzymatic assay used to determine activity was a mobility shift assay using a LabChip EZ Reader by Caliper Life Sciences. The enzymatic reaction was carried out in assay buffer (50 mM HEPES pH 7.5, 1 mM EGTA, 10 mM EDTA, 0.01% Tween® 20, and 2 mM DTT). The compounds were dispensed on a white 384 well ProxiPlate™ (PerkinElmer Catalog #6008289) plate using the Labcyte Echo at varying concentrations (12 point, 1:3 dilution). The enzyme (at 0.5 nM) was incubated with compound for 10 minutes at room temperature. Thereafter, the substrate (phosphorylated insulin receptor probe sequence: ((OG488)-(NH—CH2—CH2—O—CH2—CH2—O—CH2—CO)-T-R-D-I—(PY)-E-T-D-Y—Y—R—K—K—NH2) (SEQ ID NO: 2) was added at 2 μM to the plates and incubated for another 10 minutes at room temperature. Finally, a quench solution (water and 4-bromo-3-(2-oxo-2-propoxyethoxy)-5-(3-{[1-(phenylmethanesulfonyl)piperidin-4-yl]amino}phenyl)thiophene-2-carboxylic acid) was added to the plates, which were then run on the EZ Reader (excitation 488 nm, emission 530 nm) to measure % conversion (the amount of phosphorylated substrate which was de-phosphorylated by PTPN2). […] The % inhibition was then used to calculate the IC50 values.

[2] = biological target: His tagged full-length PTPN1 protein (Homo sapiens (Human), UniProt P18031); test: PTPN1 Mobility Shift Assay (MSA); type: biochemical; conditions: enzyme 0.5 nM, substrate 2 μM
Chain of His tagged full-length PTPN1 protein (P18031 whole entry): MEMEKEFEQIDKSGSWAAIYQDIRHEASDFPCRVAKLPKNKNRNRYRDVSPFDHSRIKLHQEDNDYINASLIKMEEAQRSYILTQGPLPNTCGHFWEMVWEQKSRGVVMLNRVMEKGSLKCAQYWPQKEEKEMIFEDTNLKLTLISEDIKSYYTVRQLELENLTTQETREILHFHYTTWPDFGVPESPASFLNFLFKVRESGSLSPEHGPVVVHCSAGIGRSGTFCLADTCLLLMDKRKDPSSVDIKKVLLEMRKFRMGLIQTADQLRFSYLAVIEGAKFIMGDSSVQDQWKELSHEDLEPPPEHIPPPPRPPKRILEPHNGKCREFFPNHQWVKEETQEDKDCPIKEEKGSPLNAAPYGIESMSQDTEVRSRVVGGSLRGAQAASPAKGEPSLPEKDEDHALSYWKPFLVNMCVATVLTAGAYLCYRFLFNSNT
Method: Example III-2: Mobility Shift Assay (MSA) Used to Determine Potency of PTPN1 Inhibitors
Compound activity was determined using in house His tagged full-length PTPN1 protein (SEQ ID NO: 3) in an in vitro enzymatic reaction. The enzymatic assay used to determine activity is a mobility shift assay using a LabChip EZ Reader by Caliper Life Sciences. The enzymatic reaction was carried out in assay buffer (50 mM HEPES pH 7.5, 1 mM EGTA, 10 mM EDTA, 0.01% Tween® 20, and 2 mM DTT). The compounds were dispensed on a white 384 well ProxiPlate™ (PerkinElmer Cat ^#6008289) plate using a Labcyte Echo® liquid handler at varying concentrations (12 point, 1:3 dilution). The enzyme (at 0.5 nM) was incubated with compound for 10 minutes at room temperature. Thereafter, the substrate (phosphorylated insulin receptor probe sequence: ((OG488)-(NH—CH2—CH2—O—CH2—CH2—O—CH2—CO)-T-R-D-I—(PY)-E-T-D-Y—Y—R—K—K—NH2) (SEQ ID NO: 2) was added at 2 μM to the plates and incubated for another 10 minutes at room temperature. Finally, a quench solution (water and 4-bromo-3-(2-oxo-2-propoxyethoxy)-5-(3-{[1-(phenylmethanesulfonyl)piperidin-4-yl]amino}phenyl)thiophene-2-carboxylic acid) was added to the plates, which were then run on the EZ Reader (excitation 488 nm, emission 530 nm) to measure % conversion (the amount of phosphorylated substrate which was de-phosphorylated by PTPN1). […] The % inhibition was then used to calculate the IC50 values.

[3] = tested on: IFNγ-induced STAT1 phosphorylation (pSTAT1) in B16F10 cells; test: B16F10 Phospho-STAT1 HTRF proximal pharmacodynamic (PD) assay; type: cell-based, murine; conditions: for EC50: B16-F10, B16F10 cells; for Dihydrobenzofuran or Indoline x-fold>potency cellular: x-fold versus corresponding chromane comparator, B16F10 pSTAT1
Method: Example III-3: B16F10 (Murine Melanoma Cells) Phospho-STAT1 HTRF Proximal Pharmacodynamic (PD) Assay
B16F10 cells were grown and maintained in high glucose DMEM (Gibco, Catalog^#11965-092, Dun Laoghaire Co Dublin) supplemented with 10% fetal bovine serum (Gibco, Catalog^#10082-139, Dun Laoghaire Co Dublin). The cells were pelleted and resuspended in high glucose DMEM without phenol red (Gibco, Catalog^#11054-020, Dun Laoghaire Co Dublin), supplemented with 10% fetal bovine serum and plated in a 384 well Corning plate (product^#3765, Corning, NY) at 11,000 cells per well in a volume of 20 μL. The cells were dosed with the compounds of interest using an Echo Liquid Handler (Beckman Coulter, Brea, CA) at 50 μM top dose with 3-fold dilutions down to 0.002679 μM for a 10-point dose response. The plate was incubated for 3 hours at 37° C. and subsequently treated with recombinant mouse IFNγ (R&D Systems, Catalog^#485-MI, Minneapolis, MN; 100 nM final concentration) for 10 minutes at 37° C. to induce STAT1 phosphorylation followed by 3.3 μM staurosporine treatment for 1 hour at 37° C. to terminate phosphorylation. Media was then aspirated and 20 μL of 1× lysis buffer/blocking reagent (Cisbio Phospho-STAT1 kit, part^# 63ADK026PEH, Bedford, MA) was added. The plate was placed on a plate shaker for 30 minutes at room temperature, sealed, and stored at −80° C. until needed. To thaw, the plate was placed on shaker at room temperature until completely thawed while the antibody master mix was made (1:40 Phospho-STAT1 Eu Cryptate antibody, 1:40 Phospho-STAT d2 antibody, with the detection buffer; Cisbio Phospho-STAT1 kit, part^#63ADK026PEH, Bedford, MA). The antibody master mix was then dispensed at 4 μL per well into a 384 ProxiPlate Plus (PerkinElmer, part^#6008289, Waltham, MA) and 16 μL of lysate was added from the Corning plate to the Proxiplate using a VIAFLO 384 (INTEGRA). The plate was incubated for 3 hours at room temperature and read on an EnVision® (Perkin Elmer) plate reader with laser excitation at 335 nm and emission at 665 nm. Dotmatics Studies (Bishop's Stortford, UK) was utilized to generate all dose-response curves and calculate EC50s and are shown in Table 2.

[4] = 3 hours compound, 100 nM mouse IFNγ 10 minutes, read-out: B16F10 IFNγ Induced pSTAT1 EC50
[5] = Table 3, dihydrobenzofuran or indoline compound (X = O or NH)
[6] = Mus musculus, Table 3, dihydrobenzofuran or indoline compound (X = O or NH), read-out: pSTAT1 EC50

| SMILES | IC50 [2] [µM] | EC50 [3, 4] [µM] | EC50 [3, 6] [µM] | IC50 ([1]; enzyme 0.5 nM, substrate 2 μM) [µM] | IC50 [1, 5] [µM] | Dihydrobenzofuran or Indoline x-fold>potency biochemical [1] | Dihydrobenzofuran or Indoline x-fold>potency cellular [3] |
| --- | --- | --- | --- | --- | --- | --- | --- |
| CC(C)(CO)CCNC[C@H]1Cc2c(cc(O)c(N3CC(=O)NS3(=O)=O)c2F)O1 [Compound 104, 5-[(2R)-4-fluoro-6-hydroxy-2-{[(4-hydroxy-3,3-dimethylbutyl)amino]methyl}-2,3-dihydro-1-benzofuran-5-yl]-1λ^6,2,5-thiadiazolidine-1,1,3-trione] | 0.01 to 0.1 | 5.11 |  | 0.01 to 0.1 |  |  |  |
| O=C1CN(c2c(O)cc3c(c2F)C[C@H](CNCC2COC2)O3)S(=O)(=O)N1 [Compound 120, 5-[(2R)-4-fluoro-6-hydroxy-2-({[(oxetan-3-yl)methyl]amino}methyl)-2,3-dihydro-1-benzofuran-5-yl]-1λ^6,2,5-thiadiazolidine-1,1,3-trione] | 0.01 to 0.1 | 1.61 |  | 0.01 to 0.1 |  |  |  |
| O=C1CN(c2c(O)cc3c(c2F)C[C@H](CNCCCC(F)F)O3)S(=O)(=O)N1 [Compound 107, 5-[(2R)-2-{[(4,4-difluorobutyl)amino]methyl}-4-fluoro-6-hydroxy-2,3-dihydro-1-benzofuran-5-yl]-1λ^6,2,5-thiadiazolidine-1,1,3-trione] | 0.01 to 0.1 | 1.33 | 1.33 | 0.01 to 0.1 | 0.0133 | 0.7 | 2.7 |
| O=C1CN(c2c(O)cc3c(c2F)C[C@H](CNCC2CCOCC2)O3)S(=O)(=O)N1 [Compound 114, 5-[(2R)-4-fluoro-6-hydroxy-2-({[(oxan-4-yl)methyl]amino}methyl)-2,3-dihydro-1-benzofuran-5-yl]-1λ^6,2,5-thiadiazolidine-1,1,3-trione] | 0.01 to 0.1 | 1.46 |  | 0.01 to 0.1 |  |  |  |
| O=C1CN(c2c(O)cc3c(c2F)C[C@H](CNCC2CC2)O3)S(=O)(=O)N1 [Compound 117, 5-[(2R)-2-{[(cyclopropylmethyl)amino]methyl}-4-fluoro-6-hydroxy-2,3-dihydro-1-benzofuran-5-yl]-1λ^6,2,5-thiadiazolidine-1,1,3-trione] | 0.01 to 0.1 | 0.818 |  | 0.01 to 0.1 |  |  |  |
| CC(C)CNCC1Cc2c(cc(O)c(N3CC(=O)NS3(=O)=O)c2F)O1 (stereo not drawn) [Compound 102, 5-(4-fluoro-6-hydroxy-2-{[(2-methylpropyl)amino]methyl}-2,3-dihydro-1-benzofuran-5-yl)-1λ^6,2,5-thiadiazolidine-1,1,3-trione] | 0.01 to 0.1 | 3.42 |  | 0.01 to 0.1 |  |  |  |

Now from value to compound, other results behind:

| IC50 [2] [µM] | EC50 [3, 4] [µM] | EC50 [3, 6] [µM] | SMILES | IC50 ([1]; enzyme 0.5 nM, substrate 2 μM) [µM] | IC50 [1, 5] [µM] | Dihydrobenzofuran or Indoline x-fold>potency biochemical [1] | Dihydrobenzofuran or Indoline x-fold>potency cellular [3] |
| --- | --- | --- | --- | --- | --- | --- | --- |
| 0.01 to 0.1 | > 50 | > 50 | O=C1CN(c2c(O)cc3c(c2F)C[C@H](CNCC2CCC(C(F)(F)F)CC2)O3)S(=O)(=O)N1 (stereo partly drawn) [Compound 130, 5-{(2R)-4-fluoro-6-hydroxy-2-[({[4-(trifluoromethyl)cyclohexyl]methyl}amino)methyl]-2,3-dihydro-1-benzofuran-5-yl}-1λ^6,2,5-thiadiazolidine-1,1,3-trione] | < 0.01 | 0.00438 | 6.1 | ~1.0 |
| 0.01 to 0.1 | 1.85 |  | CCCC(C)NC[C@H]1Cc2c(cc(O)c(N3CC(=O)NS3(=O)=O)c2F)N1 (stereo partly drawn) [Compound 148, 5-[(2R)-4-fluoro-6-hydroxy-2-{[(pentan-2-yl)amino]methyl}-2,3-dihydro-1H-indol-5-yl]-1λ^6,2,5-thiadiazolidine-1,1,3-trione] | < 0.01 |  |  |  |
| 0.01 to 0.1 | 1.83 |  | O=C1CN(c2c(O)cc3c(c2F)C[C@H](CNCC2CCCC2)N3)S(=O)(=O)N1 [Compound 146, 5-[(2R)-2-{[(cyclopentylmethyl)amino]methyl}-4-fluoro-6-hydroxy-2,3-dihydro-1H-indol-5-yl]-1λ^6,2,5-thiadiazolidine-1,1,3-trione] | 0.01 to 0.1 |  |  |  |
| 0.01 to 0.1 | 1.23 |  | COCCNC[C@H]1Cc2c(cc(O)c(N3CC(=O)NS3(=O)=O)c2F)N1 [Compound 136, 5-[(2R)-4-fluoro-6-hydroxy-2-{[(2-methoxyethyl)amino]methyl}-2,3-dihydro-1H-indol-5-yl]-1λ^6,2,5-thiadiazolidine-1,1,3-trione] | 0.01 to 0.1 |  |  |  |
| 0.01 to 0.1 | 1.84 |  | O=C1CN(c2c(O)cc3c(c2F)C[C@H](CNCC2CC2)N3)S(=O)(=O)N1 [Compound 147, 5-[(2R)-2-{[(cyclopropylmethyl)amino]methyl}-4-fluoro-6-hydroxy-2,3-dihydro-1H-indol-5-yl]-1λ^6,2,5-thiadiazolidine-1,1,3-trione] | 0.01 to 0.1 |  |  |  |
| 0.01 to 0.1 | 1.56 | 156 | O=C1CN(c2c(O)cc3c(c2F)C[C@H](CNCC2CCOCC2)N3)S(=O)(=O)N1 [Compound 138, 5-[(2R)-4-fluoro-6-hydroxy-2-({[(oxan-4-yl)methyl]amino}methyl)-2,3-dihydro-1H-indol-5-yl]-1λ^6,2,5-thiadiazolidine-1,1,3-trione] | 0.01 to 0.1 | 0.0216 | 0.8 | 20.6 |
| 0.01 to 0.1 | 1 |  | O=C1CN(c2c(O)cc3c(c2F)C[C@H](CNCC2CC(F)(F)C2)N3)S(=O)(=O)N1 [Compound 143, 5-[(2R)-2-({[(3,3-difluorocyclobutyl)methyl]amino}methyl)-4-fluoro-6-hydroxy-2,3-dihydro-1H-indol-5-yl]-1λ^6,2,5-thiadiazolidine-1,1,3-trione] | 0.01 to 0.1 |  |  |  |
| 0.01 to 0.1 | 1.56 |  | CC[C@@H](C)NC[C@H]1Cc2c(cc(O)c(N3CC(=O)NS3(=O)=O)c2F)N1 [Compound 149, 5-[(2R)-2-({[(2R)-butan-2-yl]amino}methyl)-4-fluoro-6-hydroxy-2,3-dihydro-1H-indol-5-yl]-1λ^6,2,5-thiadiazolidine-1,1,3-trione] | < 0.01 |  |  |  |
